Activity calls are given as the source filed them. The rule behind the calls is not given here.
Columns and labels:
[1] = target: T1, Sphingosine kinase 2 (Homo sapiens) (UniProt Q9NRA0); test: Inhibition of human recombinant SphK2 expressed in Sf9 cells assessed as enzyme activity measured as radiolabeled products using 10 uM sphingosine and 10 uM gamma[32P]ATP at 1 uM by liquid scintillation counting; parameters: scale not given: the % may be the effect or the level left
T1 sequence (whole entry): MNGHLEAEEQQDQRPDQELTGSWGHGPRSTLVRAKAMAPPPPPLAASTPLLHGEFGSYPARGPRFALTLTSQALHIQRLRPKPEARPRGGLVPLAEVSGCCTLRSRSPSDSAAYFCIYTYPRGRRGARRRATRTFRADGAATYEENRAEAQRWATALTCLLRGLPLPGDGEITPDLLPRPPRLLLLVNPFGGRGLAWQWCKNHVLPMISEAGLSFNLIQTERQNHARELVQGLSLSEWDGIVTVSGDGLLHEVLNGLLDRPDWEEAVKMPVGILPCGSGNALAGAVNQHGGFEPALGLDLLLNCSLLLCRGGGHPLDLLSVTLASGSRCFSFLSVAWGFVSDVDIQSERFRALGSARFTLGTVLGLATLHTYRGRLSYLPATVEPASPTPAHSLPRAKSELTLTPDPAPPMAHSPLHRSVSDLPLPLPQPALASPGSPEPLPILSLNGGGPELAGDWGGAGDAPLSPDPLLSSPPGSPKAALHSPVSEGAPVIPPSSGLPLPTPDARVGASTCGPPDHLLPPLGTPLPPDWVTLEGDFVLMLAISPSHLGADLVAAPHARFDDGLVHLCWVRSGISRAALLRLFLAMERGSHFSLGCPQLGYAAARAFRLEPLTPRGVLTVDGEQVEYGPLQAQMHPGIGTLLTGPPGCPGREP

[2] = Half life in rat; assay type: ADME, organism-based; conditions: in vivo
[3] = Drug uptake in human U937 cells assessed as accumulation in cells at 100 nM to 1 uM after 2 hrs incubation by LC-MS-MS analysis; assay type: ADME, cell-based; conditions: u-937, 2 h, 0.1 µM
[4] = system: U-937; test: Reduction in S1P level in human U937 cells at 100 nM to 1 uM after 2 hrs incubation by LC-MS-MS analysis; assay type: functional, cell-based
[5] = system: U-937; test: Decrease in S1P level in human U937 cells at 100 nM after 2 hrs incubation by LC-MS-MS analysis
[6] = target: T2, Sphingosine kinase 2 (Homo sapiens, UniProt Q9NRA0); test: biochemical
T2 sequence (Q9NRA0 whole entry): T1 sequence (whole entry)
Description: Inhibition of human recombinant SphK2 expressed in Sf9 cells assessed as radiolabeled products using 10 uM sphingosine and 10 uM gamma[32P]ATP by liquid scintillation counting

[7] = system: U-937; test: Increase in sphingosine level in human U937 cells at 100 nM to 1 uM after 2 hrs incubation by LC-MS-MS analysis; assay type: functional, cell-based
[8] = system: Mus musculus; test: Increase in S1p level in C57BL6/j mouse blood at 10 mg/kg, ip up to 8 hrs by LC-MS-MS analysis relative to control; assay type: functional; conditions: route intraperitoneal
[9] = system: Mus musculus; test: Increase in Sph level in C57BL6/j mouse blood at 10 mg/kg, ip up to 8 hrs by LC-MS-MS analysis relative to control; assay type: functional, organism-based; parameters: dose 10 mg/kg
[10] = Cytotoxicity against human U937 cells assessed as cell viability up to 3 uM after 24 hrs by trypan blue dye assay; assay type: cell-based; conditions: u-937, 24 h
[11] = target: T1, Sphingosine kinase 2 (Homo sapiens); conditions: U-937, 3 uM
Description: Inhibition of SphK2 in human U937 cells assessed as decrease in phosphorylated FTY720 substrate at 3 uM after 2 hrs incubation by LC-MS-MS analysis

[12] = in vivo; conditions: mouse, ip, 10 mg/kg
Description: Half life in mouse at 10 mg/kg, ip

SMILES | Activity [1] | other results
CCCCCCCCc1ccc(-c2noc(CNC(=N)N)n2)cc1 | 90% | –
C[C@@H](NC(=O)[C@H]1NCC[C@@H]1O)c1ccc(-c2noc(CCC3CCCC3)n2)cc1 | – | half-life [2]: 4.3 h
CCCCCCCCc1ccc(-c2noc(C[C@@H]3CCCN3C(=N)N)n2)cc1.Cl | – | Drug uptake [3]: Active; inhibition [4]: Active; Inhibition [5]: 90%
CCCCCCCCc1ccc(-c2noc([C@@H](NC(=N)N)C(C)C)n2)cc1 | 85% | –
CCCCCCCCc1ccc(CC[C@](N)(CO)COC)cc1 | – | Ki [6]: 16.5 µM
CCCCCCCCc1ccc(-c2noc([C@H](C)NC(=N)N)n2)cc1 | 94% | –
CCCCCCCCc1ccc(-c2noc([C@@H]3[C@@H](O)CCN3C(=N)N)n2)cc1 | 65% | –
CCCCCc1ccc(/C=C/[C@H](O)[C@@H](CO)NC)cc1 | – | Ki [6]: > 100 µM
CCCCCCCCc1ccc(-c2noc([C@@H]3CCN3C(=N)N)n2)cc1.Cl | 56% | Drug uptake [3]: Active; inhibition [4]: Active; Activity [7]: Active; fold change (FC) [8]: 2; Activity [9]: Active; Activity [10]: Non-toxic; inhibition [11]: Active; Ki [6]: 1.2 µM
CCCCCCCCc1ccc(CNC(=O)[C@@H]2CCCN2C(=N)N)cc1 | 95% | –
Oc1ccc(Nc2nc(-c3ccc(Cl)cc3)cs2)cc1 | – | Ki [6]: 50 µM
CCCCCCCCCCc1ccc(NC(=O)[C@@H]2CCCN2C(=N)N)cc1 | 83% | –
OC[C@H]1C[C@@H](O)CCN1CCc1ccc(Nc2nc(-c3ccc(C(F)(F)F)cc3)cs2)cc1 | – | half-life [12]: 6.5 h
CCCCCCCCc1ccc(-c2noc([C@@H]3C=CCN3C(=N)N)n2)cc1 | 96% | –

Second part, led by results:

Activity [1] | SMILES | other results
42% | CCCCCCCCc1ccc(-c2nc([C@@H]3CCCN3C(=N)N)no2)cc1 | Ki [6]: 1.1 µM
91% | CCCCCCCCc1ccc(-c2nnc([C@@H]3CCCN3C(=N)N)o2)cc1 | –
90% | CCCCCCCCc1ccc(-c2noc([C@H]3CCCN3C(=N)N)n2)cc1 | –
44% | CCCCCCCCc1ccc(-c2noc([C@@H]3CCCN3C(=N)N)n2)cc1.Cl | Ki [6]: 1.3 µM
90% | CCCCCCCCc1ccc(-c2noc([C@@H]3C[C@H](O)CN3C(=N)N)n2)cc1 | –
96% | CCCCCCCCc1ccc(-c2noc(C3CN(C(=N)N)C3)n2)cc1 | –
95% | CCCCCCCCc1ccc(-c2noc([C@@H]3CCN(C(=N)N)C3)n2)cc1 | –
100% | CCCCCCCCCCc1ccc(NC(=O)[C@H]2CCCN2C(=N)N)cc1 | –
98% | CCCCCCCCc1ccc(-c2noc(C3(NC(=N)N)CC3)n2)cc1 | –
75% | CCCCCCCCc1ccc(C(=O)NC[C@@H]2CCCN2C(=N)N)cc1 | –
92% | CCCCCCCCc1ccc(-c2noc([C@@H]3CCCCN3C(=N)N)n2)cc1 | –
100% | CCCCCCCCc1ccc(-c2noc(CC[C@@H]3CCCN3C(=N)N)n2)cc1 | –
90% | CCCCCCCCc1ccc(-c2noc(CN(C)C(=N)N)n2)cc1 | –
70% | CCCCCCCCc1ccc(-c2noc([C@@H]3C[C@@H](O)CN3C(=N)N)n2)cc1 | Ki [6]: 5.2 µM
99% | CCCCCCCCc1ccc(-c2noc([C@H](CO)NC(=N)N)n2)cc1 | –

— ChEMBL document CHEMBL3414421, “Structure-activity relationship studies and in vivo activity of guanidine-based sphingosine kinase inhibitors: discovery of SphK1- and SphK2-selective inhibitors” (J Med Chem, 2015)
